Source: patent publication US4231936A, “Mitomycin C derivatives” (priority 1977, dated 1980)

How the values were obtained:
[1] = test system: Bacillus subtilis ATCC 10707; test: Minimum inhibitory concentration (Table I); assay type: cell-based
Source text: (§1) Comparative data similarly obtained by using mitomycin A, mitomycin C and 7-N-phenyl mitomycin C are also shown in this table

[2] = test system: Klebsiella pneumoniae ATCC 10031; test: Minimum inhibitory concentration (Table I); assay type: cell-based
Source text: as §1

[3] = test system: Shigella sonnei ATCC 9290; test: Minimum inhibitory concentration (Table I); assay type: cell-based
Source text: as §1

[4] = test system: Staphylococcus aureus ATCC 6538P; test: Minimum inhibitory concentration (Table I); assay type: cell-based
Source text: as §1

[5] = test system: P-388 cells; test: Antitumor activity, P-388 leukemia intraperitoneally inoculated, compound i.p. (Example II); assay type: in vivo, CDF1 mice
Protocol: (§2) The following treatment was performed to make these compounds water-soluble for use in the experiments. A test compound was dissolved in ethanol (about 1000 times by weight) HCO-60, a commercially available surfactant was added in amounts of about 3 times by weight. The mixture was well stirred to dissolve the HCO-60. Ethanol was removed from the solution under reduced pressure by using a rotary evaporator. After this, a test solution was prepared by adding a suitable amount of a physiological saline solution with agitation.
Seven-day-old leukemia cells obtained from the ascites of DBA/2 mice inoculated intraperitoneally with 10^6 P-388 cells were used. A cell suspension containing 5×10^6 cells per ml was prepared by using a sterilized physiological saline solution. The test mice (CDF1 mice, 20-25 g) were inoculated with 0.2 ml of the cell suspension containing 1×10^6 cells intraperitoneally. After 24 hours, the mice were divided into groups (each group consisting of 5 mice) and the test solutions were administered intraperitoneally once only. […] In order to evaluate the effects of the test samples, the average survival days were calculated 30 and 60 days after tumor implantation and compared with those of the control group (untreated group). Antitumor activities of the test compounds are indicated by ILS % (increase in life span%) on the basis of the control group.

[6] = test system: P-388 cells; test: Antitumor effect, P-388 cells intravenously inoculated, compound i.v. (Example III); assay type: in vivo, Mice; conditions: 30 days
Protocol: as §2
Mice were inoculated intravenously with P-388 cells (10^6 /0.2 ml) in a similar manner to that described above in Example II. […] Untreated mice and mice administered with Tween 80 were used for control purpose.

[7] = test system: Sarcoma 180 cells; test: Effect on Sarcoma-180, tumor weight ratio (Example IV); assay type: in vivo, dd-strain mice; parameters: key: D*: All mice in the group died
Protocol: as §2
(§3) Sarcoma 180 cells were inoculated intraperitoneally into dd-strain mice. After 7 days following tumor implantation, ascites tumor cells were obtained from the mice. The cells were washed and a tumor cell suspension containing 5×10^7 cells per ml was prepared with physiological saline solution. 0.1 ml of the thus-prepared suspension containing 5×10^6 cells was inoculated into the left inguinal region of each of the test mice (dd-strain; weight 19±1 g; divided into groups, each group consisting of 5 mice). After 24 hours following the inoculation, the test compounds were administered to the mice individually and intraperitoneally. After 4 days following the inoculation, the peripherical blood of the treated mice was obtained by the puncture of the orbital vein. The number of the leucocytes in the peripheral blood was measured by using Toa Microcell Counter CC-108 (a commercial product of Toa Medical Electronics Co., Ltd., Japan). In order to evaluate the antitumor effects, the tumor was removed 7 days after the inoculation and weighed. Its weight was compared with the average weight of the tumors of the control group (untreated) to give the weight ratios (T/C) shown in Table 5.

[8] = Number of leucocytes in peripheral blood of Sarcoma-180 bearing mice (Example IV); assay type: in vivo, dd-strain mice; parameters: key: D*: All mice in the group died
Protocol: as §2, §3

[9] = Solubility in water; assay type: physicochemical
[10] = Acute toxicity determination, intraperitoneal; parameters: species or system Mice (dd-strain); conditions: mouse, in vivo, ip; dd mice, single i.p., 14 days, Behrens-Karber
Protocol: as §2
Mice [dd-strain; weight 20±1 g; each group consisted of 5 mice] were used for this experiment. An individual test solution was administered to each mouse by intraperitoneal injection. The test solutions (each 0.5 ml) were prepared by stepwise dilution.

[11] = 5 mg/kg i.p. once, determined after 30 days
[12] = 5 mg/kg i.p. once, determined after 60 days
[13] = 10 mg/kg i.p. once, determined after 30 days
[14] = 10 mg/kg i.p. once, determined after 60 days
[15] = 15 mg/kg i.p. once, determined after 30 days
[16] = 15 mg/kg i.p. once, determined after 60 days
[17] = 20 mg/kg i.p. once, determined after 30 days
[18] = 20 mg/kg i.p. once, determined after 60 days
[19] = 5 mg/kg i.p., tumor weighed 7 days after inoculation
[20] = 10 mg/kg i.p., tumor weighed 7 days after inoculation
[21] = 20 mg/kg i.p., tumor weighed 7 days after inoculation
[22] = 5 mg/kg i.p., 4 days after inoculation
[23] = 10 mg/kg i.p., 4 days after inoculation
[24] = 20 mg/kg i.p., 4 days after inoculation

CO[C@@]12[C@H](COC(N)=O)C3=C(C(=O)C(C)=C(Nc4ccccc4)C3=O)N1C[C@@H]1N[C@@H]12 [III, 7-N-phenyl mitomycin C, reference compound]
minimum inhibitory concentration [1]: < 0.025 | minimum inhibitory concentration [2]: 0.098 | minimum inhibitory concentration [3]: 1.563 | minimum inhibitory concentration [4]: < 0.025 | Average survival days [5, 11]: 17.84 ± 1.2 days | ILS % (increase in life span) [5, 11]: 82% | Number of survivors [5, 11]: 0/5 | Average survival days [5, 12]: 17.8 ± 1.2 days | ILS % (increase in life span) [5, 12]: 82% | Number of survivors [5, 12]: 0/5 | Average survival days [5, 13]: 21.8 ± 4.3 days | ILS % (increase in life span) [5, 13]: 122% | Number of survivors [5, 13]: 1/5 | Average survival days [5, 14]: 22.04 ± 4.6 days | ILS % (increase in life span) [5, 14]: 124% | Number of survivors [5, 14]: 0/5 | Average survival days [5, 15]: 21.2 ± 2.8 days | ILS % (increase in life span) [5, 15]: 116% | Number of survivors [5, 15]: 0/5 | Average survival days [5, 16]: 21.2 ± 2.8 days | ILS % (increase in life span) [5, 16]: 116% | Number of survivors [5, 16]: 0/5 | Average survival days [5, 17]: 21.6 ± 4.4 days | ILS % (increase in life span) [5, 17]: 120% | Number of survivors [5, 17]: 1/5 | Average survival days [5, 18]: 21.8 ± 4.8 days | ILS % (increase in life span) [5, 18]: 122% | Number of survivors [5, 18]: 0/5 | Average survival days ([6]; 5 mg/kg i.v. once): 11.4 ± 1.4 days | ILS % ([6]; 5 mg/kg i.v. once): 33% | Average survival days ([6]; 10 mg/kg i.v. once): 13.6 ± 1.4 days | ILS % ([6]; 10 mg/kg i.v. once): 54% | Average survival days ([6]; 15 mg/kg i.v. once): 15.8 ± 1.5 days | ILS % ([6]; 15 mg/kg i.v. once): 84% | Average survival days ([6]; 20 mg/kg i.v. once): 18.0 ± 1.7 days | ILS % ([6]; 20 mg/kg i.v. once): 109% | Average survival days ([6]; 30 mg/kg i.v. once): 10.0 ± 2.3 days | ILS % ([6]; 30 mg/kg i.v. once): 16% | T/C (tumor weight ratio) [7, 19]: 0.84 | T/C (tumor weight ratio) [7, 20]: 0.59 | T/C (tumor weight ratio) [7, 21]: 0.21 | T/C (tumor weight ratio) ([7]; 40 mg/kg i.p., death symbol in place of T/C): D* | Average number of leucocytes [8, 22]: 81.4 ± 21.2 × 10^2 /mm^3 | Average number of leucocytes [8, 23]: 60.8 ± 18.7 × 10^2 /mm^3 | Average number of leucocytes [8, 24]: 31.8 ± 11.9 × 10^2 /mm^3 | Average number of leucocytes ([8]; 40 mg/kg i.p., death symbol in place of count): D* | solubility in water [9]: low solubility in water

CO[C@@]12[C@H](COC(N)=O)C3=C(C(=O)C(C)=C(Nc4ccc(N)cc4)C3=O)N1C[C@@H]1N[C@@H]12 [V, 7-N-(p-aminophenyl)-mitomycin C]
minimum inhibitory concentration [1]: < 0.025 | minimum inhibitory concentration [2]: 0.049 | minimum inhibitory concentration [3]: 3.125 | minimum inhibitory concentration [4]: < 0.025 | LD50 at 336 h [10]: 18 mg/kg | Average survival days [5, 11]: 20.0 ± 3.0 days | ILS % (increase in life span) [5, 11]: 104% | Number of survivors [5, 11]: 0/5 | Average survival days [5, 12]: 20.0 ± 3.0 days | ILS % (increase in life span) [5, 12]: 104% | Number of survivors [5, 12]: 0/5 | Average survival days [5, 13]: 24.6 ± 2.9 days | ILS % (increase in life span) [5, 13]: 151% | Number of survivors [5, 13]: 1/5 | Average survival days [5, 14]: 26.4 ± 6.4 days | ILS % (increase in life span) [5, 14]: 169% | Number of survivors [5, 14]: 0/5 | Average survival days [5, 15]: 21.6 ± 6.4 days | ILS % (increase in life span) [5, 15]: 120% | Number of survivors [5, 15]: 1/5 | Average survival days [5, 16]: 21.8 ± 6.7 days | ILS % (increase in life span) [5, 16]: 122% | Number of survivors [5, 16]: 0/5 | Average survival days [5, 17]: 18.4 ± 6.1 days | ILS % (increase in life span) [5, 17]: 88% | Number of survivors [5, 17]: 1/5 | Average survival days [5, 18]: 24.4 ± 17.9 days | ILS % (increase in life span) [5, 18]: 149% | Number of survivors [5, 18]: 1/5 | Average survival days ([6]; 5 mg/kg i.v. once): 14.0 ± 0 days | ILS % ([6]; 5 mg/kg i.v. once): 63% | Average survival days ([6]; 10 mg/kg i.v. once): 17.8 ± 1.9 days | ILS % ([6]; 10 mg/kg i.v. once): 107% | Average survival days ([6]; 15 mg/kg i.v. once): 23.0 ± 1.7 days | ILS % ([6]; 15 mg/kg i.v. once): 167% | Average survival days ([6]; 20 mg/kg i.v. once): 15.8 ± 5.4 days | ILS % ([6]; 20 mg/kg i.v. once): 84% | Average survival days ([6]; 30 mg/kg i.v. once): 8.4 ± 1.0 days | ILS % ([6]; 30 mg/kg i.v. once): -2% | T/C (tumor weight ratio) [7, 19]: 0.71 | T/C (tumor weight ratio) [7, 20]: 0.37 | T/C (tumor weight ratio) [7, 21]: 0.24 | T/C (tumor weight ratio) ([7]; 40 mg/kg i.p., tumor weighed 7 days after inoculation): 0.09 | Average number of leucocytes [8, 22]: 58.2 ± 17.1 × 10^2 /mm^3 | Average number of leucocytes [8, 23]: 34.2 ± 11.2 × 10^2 /mm^3 | Average number of leucocytes [8, 24]: 24.0 ± 10.2 × 10^2 /mm^3 | Average number of leucocytes ([8]; 40 mg/kg i.p., 4 days after inoculation): 13.6 ± 4.6 × 10^2 /mm^3 | solubility in water [9]: low solubility in water

COC1=C(C)C(=O)C2=C(C1=O)[C@@H](COC(N)=O)[C@@]1(OC)[C@H]3N[C@H]3CN21 [Compound I, mitomycin A]
minimum inhibitory concentration [1]: < 0.025 | minimum inhibitory concentration [2]: < 0.025 | minimum inhibitory concentration [3]: 0.098 | minimum inhibitory concentration [4]: < 0.025
